Laboratory results from patent publication US20040138301A1, “Chemical uncouplers for the treatment of obesity” (priority 2002, published 2004).
Like-named read-outs stand apart in the source and are kept apart here.

Legend:
HEP-G2 cells = assay: cells; conditions: for Emax: HepG2, read-out: HEP-G2 Emax (% of FCCP), HEP-G2 cells, maximal stimulation relative to FCCP; for EC (Emax): HepG2, read-out: HEP-G2 Emax (μM), HEP-G2 cells, concentration at which Emax is achieved (CEmax); for HEP-G2 Tox: human, 3 h
Protocol: Assay (I): Glucose utilisation in a human hepatocytes cell line (HEP-G2 cells)
The assay measures indirectly the activity of the respiratory chain in HEP-G2 cells by using D-(3-^3H(N))-glucose. The ^3H-proton will first be released during the metabolism of glucose where it will be incorporated into water. The water is thereafter separated from the D-(3-^3H(N))-glucose by evaporation. Finally, the radioactivity in the water is determined using a Topcounter.
HEP-G2 cells obtained from ATCC (Maryland, USA), are cultured in assay medium (MEM medium) with the following addition 1× non-essential amino acids (M7145, 2 mM glutamine, 100 units/ml penicillin and streptomycin, 0.0075% sodium bicarbonate, 1 mM sodium pyrovate and 0.5% BSA (Bovin Serum Albumin, Sigma Missouri, USA)) at 37° C. and 5% CO2. All media are obtained by Gibco (Life Technologies, Maryland, USA) where not otherwise mentioned.
At day zero the cells are harvested using trypsin-EDTA and washed in assay medium using centrifugation. […] The cells are then incubated at 37° C. and 5% CO2 overnight.
(§1) The next day the compounds to be tested are diluted in DMSO (Sigma, Missouri, USA) to 100 times final concentration. They are then diluted to a final concentration in assay medium containing 10 μCi/ml D-(3-^3H(N))-glucose (PerkinElmer Life Sciences Inc., Boston, USA). The medium is removed from the cells and 200 μl of the compound dilutions are added in duplicates. The cells are then incubated for another 3 hours at 37° C. and 5% CO2. Finally the cells are lysed by adding 50 μl 10% TCA (trichloroacetic acid). 300 μl of sterile water is then added to the 24-wells that surrounds the StripPlate wells. The plate is sealed with Top-seal-tape (Packard, PerkinElmer Life Sciences Inc., Boston, USA) and the plate is incubated in a heating cupboard at 50° C. to equilibrium the radioactive water formed in the respiratory chain into the water in the 24-well plate by evaporate. The plates incubate for 8 hours where the heating cupboard is turned off. The top seal is removed when the samples have reached room temperature. One ml scintillation liquid (Packard Microscient, PerkinElmer Life Sciences Inc., Boston, USA) is added to all the samples and the radioactivity is determined using a Topcounter (Packard, PerkinElmer Life Sciences Inc., Boston, USA). Non-specific activity is determined by evaporating 200 μl of the dilution medium containing the D-(3-^3H(N))-glucose into 300 μl sterile water, and total radioactivity is determined by counting 5 μl assay medium with 10 μCi/ml D-(3-^3H(N))-glucose.
The cpm (counts per minute) representing the non-specific radioactivity in the D-(3-^3H(N))-glucose is subtracted from all incubated values. Then mean basal value (samples without any compound added) is subtracted from the values of all stimulated samples (samples added different concentrations of the different test compounds). All these calculations are done using GraphPad Prism 3.0 (GraphPad software, Inc.). The maximal stimulation caused by the test compounds is calculated in percentage of maximal stimulation caused by either DNP or FCCP.
When calculating the concentration-response curve the maximal glucose utilisation stimulated by FCCP or DNP (subtracted non-specific and basal values) is converted to 100% and all the other values are expressed in percentage of this value. Using these percentage values and the compound concentration a concentration-response curve is calculated using sigmoidal dose-response (variable slope) equation (all the calculations are done by GraphPad Prism 3.0 (GraphPad software, Inc.));
Y=Bottom+(Top−Bottom)/(1+10^((LogEC50-X)*slope))
(§2) X is the logarithm of the molar concentration of the test compound.
Y is the degree of stimulation caused by the compound measured as a percentage of the maximal stimulation achieved by use of FCCP or DNP.
The results achieved with these concentrations are used to determine the slope in this area using the following equation: […]

FSK-4 cells = assay: Assay (IV): Glucose utilisation in FSK-4 cells; assay type: cell-based; conditions: FSK-4 cells; for EC50: glucose utilisation, 24 hours incubation, read-out: FSK4 EC50; for Emax: maximal efficacy relative to FCCP, read-out: FSK4 Emax (% of FCCP)
Protocol: Assay (IV): Glucose Utilisation in FSK-4 Cells
The assay measures indirectly the activity of the respiratory chain in FSK-4 cells by using D-(6-^3H(N))-glucose. The ^3H-proton will first be released in the TCA cyclus and transported to the respiratory chain where it will be incorporated into water. The water is thereafter separated from the D-(6-^3H(N))-glucose by evaporation. Finally, the radioactivity in the water is determined using a Topcounter.
FSK-4 cells obtained from ATCC (Maryland, USA), are cultured in growth medium (McCoy's medium with the following addition 100 units/ml penicillin and streptomycin and 10% FCS (fetal calf serum)) at 37° C. and 5% CO2. All media are obtained by Gibco (Life Technologies, Maryland, USA) where not otherwise mentioned.
At day zero the cells are harvested using trypsin-EDTA and washed in assay medium (MEM medium with the following addition 1× non-essential amino acids (M7145, 2 mM glutamin, 100 units/ml pencillin and streptomycin, 0.0075% sodium bicarbonate, 1 mM sodium pyrovate and 2% horse serum) using centrifugation. The cells are plated into single StripPlates wells (Corning B.V.Life Sciences, The Netherlands) that are placed into 24-well plates (Corning B.V.Life Sciences, The Netherlands) with a concentration of 1,5×10^4 cells/100 μl assay medium/well. The cells are then incubated at 37° C. and 5% CO2 overnight.
as §1, with “are diluted to different concentrations in DMSO” for “are diluted in DMSO”, “10 μCi/ml D-(6-^3H(N))-glucose (PerkinElmer Life” for “10 μCi/ml D-(3-^3H(N))-glucose (PerkinElmer Life”, “for another 24 hours at” for “for another 3 hours at”, “10% TCA (tri-chloroacetatic acid). 300” for “10% TCA (trichloroacetic acid). 300”, “containing the D-(6-^3H(N))-glucose into 300” for “containing the D-(3-^3H(N))-glucose into 300”, “10 μCi/ml D-(6-^3H(N))-glucose.” for “10 μCi/ml D-(3-^3H(N))-glucose.”
All calculations are done using GraphPad Prism 3.0 (GraphPad software, Inc.) From concentration-response curves the half maximal concentration (EC50) and maximal efficacy (Emax) are calculated using equation 1.
Y=Bottom+(Top−Bottom)/(1+10^((LogEc50-X)*slope))
as §2
Y is the degree of stimulation caused by the compound measured as percentage of the basal stimulation.
The calculated EC50 value is then used to determine the concentrations used in a study where the Hill slope is calculated.
From the double logarithmic plot of the increase in glucose utilisation and the compound concentration the Hill slope is calculated accordingly to equation 2.
It is presumed, that the maximal increase in the glucose utilisation (as measured in the FSK-4 glucose utilisation assay) is limited by the capacity of the metabolism.

[1] = Homo sapiens, HepG2, 3 h, read-out: HEP-G2 EC50, HEP-G2 cells, glucose utilisation, 3 hours incubation

Row | EC50 (HEP-G2 cells; [1]) [nM] | EC50 (HEP-G2 cells; read-out: HEP-G2 EC50, HEP-G2 cells, glucose utilisation, 3 hours incubation) [nM] | EC50 (FSK-4 cells) [nM] | Compound | Emax (HEP-G2 cells; Homo sapiens) [%] | Emax (FSK-4 cells) [%] | EC (Emax) (HEP-G2 cells; Homo sapiens) [µM] | HEP-G2 Tox (HEP-G2 cells)
1 | 700 | – | 1000 | Cc1c(Cl)cc(C(C)(C)C)c(O)c1C(=O)Nc1cc(C(F)(F)F)cc(C(F)(F)F)c1 [Example 47, N-(3,5-Bis-Trifluoromethyl-Phenyl)-3-Tert-Butyl-5-Chloro-2-Hydroxy-6-Methyl-Benzamide] | 75 | 90 | 10 | Tox 0.1 mM
2 | 3500 | – | 2800 | Cc1c(Cl)cc(C(C)(C)C)c(O)c1C(=O)Nc1cc(C(F)(F)F)ccc1F [Example 48, 3-Tert-Butyl-5-Chloro-N-(2-Fluoro-5-Trifluoromethyl-Phenyl)-2-Hydroxy-6-Methyl-Benzamide] | 95 | 85 | 10 | 0.1 mM
3 | 2400 | – | 2500 | Cc1c(Br)cc(C(C)(C)C)c(O)c1C(=O)Nc1cc(C(F)(F)F)ccc1Cl [Example 52, 3-Bromo-5-Tert-Butyl-N-(2-Chloro-5-Trifluoromethyl-Phenyl)-6-Hydroxy-2-Methyl-Benzamide] | 95 | 75 | 10 | –
4 | 4150 | – | 15000 | Cc1c(Br)cc(C(C)(C)C)c(O)c1C(=O)Nc1ccc(Cl)cc1Cl [Example 53, 3-Bromo-5-Tert-Butyl-N-(2,4-Dichloro-Phenyl)-6-Hydroxy-2-Methyl-Benzamide] | 90 | 95 | 10 | –
5 | 870 | – | 1100 | Cc1c(Br)cc(C(C)(C)C)c(O)c1C(=O)Nc1cc(C(F)(F)F)ccc1C(F)(F)F [Example 61, N-(2,5-Bis-Trifluoromethyl-Phenyl)-3-Bromo-5-Tert-Butyl-6-Hydroxy-2-Methyl-Benzamide] | 105 | 105 | 10 | –
6 | 2300 | – | 1200 | Cc1c(Br)cc(C(C)(C)C)c(O)c1C(=O)Nc1c(Cl)cc(Cl)cc1C(F)(F)F [Example 62, 3-Bromo-5-Tert-Butyl-N-(2,4-Dichloro-6-Trifluoromethyl-Phenyl)-6-Hydroxy-2-Methylbenzamide] | 115 | 85 | 30 | –

More lines, now with the values behind:

Row | Compound | EC50 (HEP-G2 cells; [1]) [nM] | EC50 (HEP-G2 cells; read-out: HEP-G2 EC50, HEP-G2 cells, glucose utilisation, 3 hours incubation) [nM] | EC50 (FSK-4 cells) [nM] | Emax (HEP-G2 cells; Homo sapiens) [%] | Emax (FSK-4 cells) [%] | EC (Emax) (HEP-G2 cells; Homo sapiens) [µM] | HEP-G2 Tox (HEP-G2 cells)
7 | O=C(Nc1ccc([N+](=O)[O-])cc1Cl)c1cccc(-c2ccccc2)c1O [Example 44, 2-Hydroxy-Biphenyl-3-Carboxylic Acid (2-Chloro-4-Nitro-Phenyl)-Amide] | 2000 | 1400 | 3600 | 94 | 90 | – | –
8 | Cc1c(Cl)cc(C(C)(C)C)c(O)c1C(=O)Nc1ccc([N+](=O)[O-])c(C(F)(F)F)c1 [Example 49, 3-Tert-Butyl-5-Chloro-2-Hydroxy-6-Methyl-N-(4-Nitro-3-Trifluoromethyl-Phenyl)-Benzamide] | 950 | – | 300 | 105 | 95 | 3 | –
9 | Cc1c(Br)cc(C(C)(C)C)c(O)c1C(=O)Nc1ccc(C#N)cc1Cl [Example 51, 3-Bromo-5-Tert-Butyl-N-(2-Chloro-4-Cyano-Phenyl)-6-Hydroxy-2-Methyl-Benzamide] | 400 | – | 300 | 100 | 105 | 3 | –
10 | Cc1c(Br)cc(C(C)(C)C)c(O)c1C(=O)Nc1c(Cl)cc(Cl)cc1[N+](=O)[O-] [Example 54, 3-Bromo-5-Tert-Butyl-N-(2,4-Dichloro-6-Nitro-Phenyl)-6-Hydroxy-2-Methyl-Benzamide] | 520 | – | 300 | 90 | 80 | 3 | –
11 | Cc1c(Br)cc(C(C)(C)C)c(O)c1C(=O)Nc1c(Cl)cc([N+](=O)[O-])cc1Cl [Example 55, 3-Bromo-5-Tert-Butyl-N-(2,6-Dichloro-4-Nitro-Phenyl)-6-Hydroxy-2-Methyl-Benzamide] | 360 | – | 300 | 99 | 100 | 1 | –
12 | Cc1ccc(C(C)(C)C)c(O)c1C(=O)Nc1ccc([N+](=O)[O-])cc1C(F)(F)F [Example 59, 3-Tert-Butyl-2-Hydroxy-6-Methyl-N-(4-Nitro-2-Trifluoromethyl-Phenyl)-Benzamide] | 110 | – | 30 | 110 | 100 | 10 | –
13 | Cc1c(Br)cc(C(C)(C)C)c(O)c1C(=O)Nc1cc(C(F)(F)F)cc(C(F)(F)F)c1Br [Example 60, 3-Bromo-N-(2-Bromo-3,5-Bis-Trifluoromethyl-Phenyl)-5-Tert-Butyl-6-Hydroxy-2-Methylbenzamide] | 70 | – | 300 | 90 | 105 | 0.3 | –
